Data: PubChem BioAssay (NCI)
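How tested: cells in 96-well plates exposed to compound for 48 hours at five concentrations. The concentration for 50% growth inhibition is given as GI50. TGI: total growth inhibition.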

Key:
Experiment in all cases: NCI-60 cell line screen, 48 h
[1] = tested on: SK-MEL-28 melanoma
[2] = tested on: M14 melanoma
[3] = tested on: OVCAR-4 ovarian
[4] = tested on: SK-OV-3 ovarian
[5] = tested on: NCI-H460 lung
[6] = tested on: NCI-H23 lung
[7] = tested on: TK-10 renal
[8] = tested on: HL-60(TB) leukemia
[9] = tested on: RXF 393 renal

Row | SMILES | TGI [1] [µM] | TGI [2] [µM] | TGI [3] [µM] | TGI [4] [µM] | TGI [5] [µM] | TGI [6] [µM] | TGI [7] [µM] | TGI [8] [µM] | GI50 [1] [µM] | GI50 [2] [µM] | GI50 [3] [µM] | GI50 [9] [µM] | TGI [9] [µM] | GI50 [8] [µM] | GI50 [4] [µM] | GI50 [6] [µM] | GI50 [7] [µM] | GI50 [5] [µM]
1 | COc1cc2cnc3c4ccccc4ccc3c2cc1OC | > 100 | > 100 | > 100 | > 100 | > 100 | > 100 | > 100 | – | – | – | – | – | – | – | – | – | – | –
2 | CCN(CC)CC(=O)N1CCc2c([nH]c3ccccc23)C1c1cccnc1 (stereo not drawn) | > 100 | > 100 | > 100 | > 100 | > 100 | > 100 | > 100 | > 100 | – | – | – | – | – | – | – | – | – | –
3 | CC(=O)N[C@H](C(=O)N[C@@H](CCCNC(=N)N)C(=O)N[C@@H](CCCCN)C(=O)N[C@@H](CCCNC(=N)N)C(=O)N[C@]1(C)CCCCCC/C=C\CCC[C@@](C)(C(=O)N[C@@H](CCCNC(=N)N)C(=O)N[C@@H](CCC(=O)O)C(=O)N[C@@H](CC(C)C)C(=O)N[C@H](C(=O)N[C@@H](CCC(=O)O)C(N)=O)C(C)C)NC(=O)[C@H](CCC(N)=O)NC(=O)[C@H](CC(C)C)NC(=O)[C@H](CC(C)C)NC(=O)[C@H](CCCNC(=N)N)NC(=O)[C@H](CCCNC(=N)N)NC(=O)[C@H](CC(C)C)NC1=O)C(C)C | 21.7 | 27.6 | 8.02 | 27.7 | – | 30.1 | 8.8 | 18.5 | 2.64 | 2.13 | 1.57 | 1.34 | 4.77 | 5.19 | 3.72 | 2.77 | 1.6 | –
4 | CC1(C)OC2COC3(CNO)OC(C)(C)OC3C2O1 (stereo not drawn) | > 100 | > 100 | > 100 | > 100 | > 100 | > 100 | > 100 | 30.2 | – | – | – | – | > 100 | – | – | – | – | –
5 | Cl[Si]1(Cl)Oc2ccccc2O[Si](Cl)(Cl)Oc2ccccc2O1 | > 100 | 34.3 | 24.7 | > 100 | 65.9 | 84.6 | > 100 | 4.63 | – | – | – | – | – | – | – | – | – | –
6 | CC(=O)OC1COC(n2c(=S)n(-c3ccccc3)c(=O)c3cc(Br)ccc32)C(OC(C)=O)C1OC(C)=O (stereo not drawn) | > 100 | > 100 | 31.6 | > 100 | > 100 | > 100 | – | > 100 | – | – | – | – | 66.6 | – | – | – | – | –
7 | CCOC1Oc2ccccc2-c2oc(=O)c(Sc3ccc(C)cc3)cc21 (stereo not drawn) | > 100 | > 100 | > 100 | > 100 | > 100 | > 100 | > 100 | 60.5 | 84.2 | 48.2 | 25.1 | – | – | 8.98 | 20.5 | 40.4 | 30.8 | 20
8 | C=CCC1[C@@H](C(C)(C)C(C(C)=O)C(=O)C(=O)OC)OC(C(C)(C)C)N1C(=O)OC (stereo partly drawn) | > 100 | > 100 | > 100 | > 100 | > 100 | > 100 | > 100 | – | – | – | – | – | > 100 | – | – | – | – | –
9 | Cc1cc(N(CCC#N)CCC#N)ccc1/C=C1N=C(/C=C/c2ccccc2)OC(=O)N\1 | > 100 | > 100 | – | > 100 | > 100 | > 100 | > 100 | > 100 | – | – | – | – | > 100 | – | – | – | – | –
10 | C[C@H]1[C@H](C)CC[C@]2(C(=O)NCCNCCN)CC[C@]3(C)C(=CC[C@@H]4[C@@]5(C)CCC(=O)C(C)(C)[C@@H]5CC[C@]43C)[C@H]12 | 3.02 | 3.41 | 4 | 33.2 | 3.28 | 8.3 | 3.75 | – | 1.65 | 1.79 | 1.93 | – | – | – | 6.91 | 2.8 | 1.84 | 1.77
11 | NC(N)=NS(=O)(=O)c1ccc(NC(=O)c2cccc3c(Nc4ccc(S(N)(=O)=O)cc4)c4ccccc4nc23)cc1 | > 100 | > 100 | > 100 | > 100 | > 100 | > 100 | > 100 | – | – | – | – | – | > 100 | – | – | – | – | –
12 | O=c1c2c3c(sc2n2c(-c4cc(-c5ccccc5)nn4-c4ccccc4)nnc2n1Cc1ccccc1)CCCC3 | > 100 | – | > 100 | > 100 | > 100 | > 100 | > 100 | – | > 100 | – | > 100 | – | – | – | > 100 | > 100 | > 100 | > 100
13 | C=CCOC(=O)CC[N+]1=CCC(c2ccccc2)(c2ccccc2)O1 | > 100 | > 100 | > 100 | > 100 | > 100 | > 100 | > 100 | – | – | – | – | – | > 100 | – | – | – | – | –
14 | CCCCCCCCCCCCCC(=O)OCC1OC(=O)CC1O (stereo not drawn) | – | 47.9 | > 100 | > 100 | > 100 | > 100 | > 100 | > 100 | – | – | – | – | > 100 | – | – | – | – | –
